This passage reports Ki results from US20260124214A1, “HETEROCYCLIC COMPOUNDS FOR USE IN THE TREATMENT OF CANCER” (ARTIOS PHARMA LIMITED, priority 2021, published 2026).

Molecules are shown by their SMILES. Structures can show the parent of a compound that is named as a salt.

This test has as its target T1, Human Polθ polymerase domain (aa1820-2590) (Homo sapiens, UniProt O75417).
T1 construct: Human Polθ polymerase domain (aa1820-2590) was expressed in E. Coli; made in house; host or cells: E. coli
T1 sequence (O75417 1820-2590): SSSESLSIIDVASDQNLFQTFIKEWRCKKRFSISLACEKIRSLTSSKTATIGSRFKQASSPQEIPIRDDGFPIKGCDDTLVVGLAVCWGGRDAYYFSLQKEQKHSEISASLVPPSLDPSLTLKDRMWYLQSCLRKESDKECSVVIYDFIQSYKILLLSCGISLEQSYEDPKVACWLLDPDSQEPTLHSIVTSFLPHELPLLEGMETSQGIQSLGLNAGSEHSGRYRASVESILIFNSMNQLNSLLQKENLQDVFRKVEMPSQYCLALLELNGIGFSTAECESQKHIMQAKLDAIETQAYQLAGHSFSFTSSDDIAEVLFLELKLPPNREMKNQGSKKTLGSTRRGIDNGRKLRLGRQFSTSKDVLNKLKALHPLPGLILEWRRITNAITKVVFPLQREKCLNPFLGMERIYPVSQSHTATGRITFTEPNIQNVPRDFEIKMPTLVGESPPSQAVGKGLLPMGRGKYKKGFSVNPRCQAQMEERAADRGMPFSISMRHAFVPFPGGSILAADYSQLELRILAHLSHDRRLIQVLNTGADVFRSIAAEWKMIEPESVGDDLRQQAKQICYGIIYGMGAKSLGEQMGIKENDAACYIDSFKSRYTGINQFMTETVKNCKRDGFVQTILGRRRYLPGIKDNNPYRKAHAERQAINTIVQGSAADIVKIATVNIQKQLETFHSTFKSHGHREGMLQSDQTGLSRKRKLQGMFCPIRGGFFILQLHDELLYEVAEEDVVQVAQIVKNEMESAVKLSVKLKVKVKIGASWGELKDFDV
As to the kind of experiment: Polθ Polymerase Domain WT KI Assay (PicoGreen). Format: biochemical. As to conditions: 100 nM DNA substrate, 0.156 nM Polθ, initial rates vs inhibitor concentration. Here is the method: A PicoGreen assay was used to measure the KI values of reversible compounds that inhibit the activity of Polθ in vitro.
Human Polθ polymerase domain (aa1820-2590) was expressed in E. Coli, purified, aliquoted and stored at −80° C. until required. Polθ substrate was generated from a 1.2:1 mix of DNA II Short to DNA II Long to give a final concentration of […] substrate in annealing buffer (20 mM Tris pH 7.5, 50 mM NaCl). The substrate was heated in 50 mL aliquots to 95° C. in a heating block for 5 min before the heating block switched off, the reaction left to cool to rt and stored at −20° C. until required.
Assay measurements were performed with 1× buffer comprising 25 mM Tris pH 7.5, 12.5 mM NaCl, […], 5% (v/v) glycerol, 0.01% v/v Triton x-100, 0.1 mg/ml BSA, 1 mM DTT. […] 100 nL of 23×1:1.5-fold serial dilutions and a DMSO only control were dispensed using the Tecan dispenser into Greiner 384 well black low volume plates (product code 784076). DMSO concentration was maintained at 1% of the final assay volume by back filling with DMSO.
To stop the reaction, 5 μL of a solution containing 25 mM Tris-HCl PH 7.5 and 20 mM EDTA was added at […] (t=0, 15, 30, 60, 90, 120, 150, 180 mins) using the Tempest's time delay function. The plates were covered during the time course to prevent evaporation. After completing the assay, 5 μL of detection reagent (25 mM Tris-HCl pH 7.5 and 2.5% (v/v) PicoGreen) was dispensed into the wells using a Tempest liquid handler (Formulatrix) and plates subsequently read on the CLARIOstar Plus (BMG Labtech) using the default optical settings for fluorescein and the auto gain/focus settings.
All data analysis was carried out using GraphPad Prism V.8 (GraphPad Software Inc, San Diego, CA). Time course data for each inhibitor concentration were fitted to the linear regression model in GraphPad Prism. Any time points where the control (DMSO only) reaction was no longer linear were excluded from the analysis. The initial rates (slopes) obtained from the linear regression were then plotted against inhibitor concentration and fitted to an inhibitor vs. response variable slope (four parameter) model on GraphPad Prism to determine the KI values.

As a reminder, the Ki is a dissociation constant, usually derived from enzyme kinetics or from competition with a known ligand. A low value points to a stronger hold on the target. Take `Cc1cc(C(F)(F)F)cc(N2C(=O)C[C@@H]3CN(c4ccc5ccn(C)c5n4)c4c(F)cccc4N(C)C(=O)[C@H]32)n1` [Example 143, (3aR,11aS)-6-Fluoro-10-methyl-5-(1-methyl-1H-pyrrolo[2,3-b]pyridin-6-yl)-1-(6-methyl-4-(trifluoromethyl)pyridin-2-yl)-1,3a,4,5,10,11a-hexahydro-2H-benzo[b]pyrrolo[2,3-f][1,4]diazocine-2,11(3H)-dione]: the affinity corresponds to a Ki of 97 nM. Consider `CC(=O)N1CCN(CCN2C[C@H]3CC(=O)N(c4cc(C(F)(F)F)cc(C)n4)[C@@H]3C(=O)N(C)c3cccc(Cl)c32)[C@@H](C)C1` [Example 11, (3aR,11aS)-5-(2-((S)-4-Acetyl-2-methylpiperazin-1-yl)ethyl)-6-chloro-10-methyl-1-(6-methyl-4-(trifluoromethyl)pyridin-2-yl)-1,3a,4,5,10,11a-hexahydro-2H-benzo[b]pyrrolo[2,3-f][1,4]diazocine-2,11(3H)-dione], for which the Ki was determined as 1.52 nM. Then `Cc1cc(C(F)(F)F)cc(N2C(=O)C[C@@H]3CN(Cc4cccc(C5CN(C)C5)c4)c4c(F)cccc4N(C)C(=O)[C@H]32)n1` [Example 124, (3aR,11aS)-6-Fluoro-10-methyl-1-(6-methyl-4-(trifluoromethyl)pyridin-2-yl)-5-(3-(1-methylazetidin-3-yl)benzyl)-1,3a,4,5,10,11a-hexahydro-2H-benzo[b]pyrrolo[2,3-f][1,4]diazocine-2,11(3H)-dione], with 4.26 nM.

`Cc1cc(C(F)(F)F)cc(N2C(=O)C[C@@H]3CN(C[C@@H]4CN(C)CCO4)c4c(Cl)cccc4N(C)C(=O)[C@H]32)n1` (racemic) [Example 120b, (3aR,11aS)-6-Chloro-10-methyl-1-(6-methyl-4-(trifluoromethyl)pyridin-2-yl)-5-(((S/R)-4-methylmorpholin-2-yl)methyl)-1,3a,4,5,10,11a-hexahydro-2H-benzo[b]pyrrolo[2,3-f][1,4]diazocine-2,11(3H)-dione hydrochloride] returned a Ki of 4.14 nM. Consider `Cc1cc(C(F)(F)F)cc(N2C(=O)C[C@@H]3CN(CCN4CC[C@@H](C(=O)N(C)C)C4)c4c(Cl)cccc4N(C)C(=O)[C@H]32)n1` [Example 42, (R)-1-(2-((3aR,11aS)-6-Chloro-10-methyl-1-(6-methyl-4-(trifluoromethyl)pyridin-2-yl)-2,11-dioxo-1,2,3,3a,4,10,11,11a-octahydro-5H-benzo[b]pyrrolo[2,3-f][1,4]diazocin-5-yl)ethyl)-N,N-dimethylpyrrolidine-3-carboxamide], for which the Ki came to 4.96 nM. Then `Cc1cc(C(F)(F)F)cc(N2C(=O)C[C@@H]3CN(CC4CCCN4)c4c(Cl)cccc4N(C)C(=O)[C@H]32)n1` (single isomer, unassigned) [Example 107a], with 3.91 nM. Then `Cc1cc(C(F)(F)F)cc(N2C(=O)C[C@@H]3CN(CCN4C[C@@H]5C[C@H]4CN5)c4c(C)cccc4N(C)C(=O)[C@H]32)n1` [Example 59, (3aR,11aS)-5-(2-((1S,4S)-2,5-Diazabicyclo[2.2.1]heptan-2-yl)ethyl)-6,10-dimethyl-1-(6-methyl-4-(trifluoromethyl)pyridin-2-yl)-1,3a,4,5,10,11a-hexahydro-2H-benzo[b]pyrrolo[2,3-f][1,4]diazocine-2,11(3H)-dione dihydrochloride], with 1.13 nM; and `Cc1cc(C(F)(F)F)cc(N2C(=O)C[C@@H]3CN(CC4COCCN4)c4c(F)cccc4N(C)C(=O)[C@H]32)n1` (single isomer, unassigned) [Example 106a], with 13.7 nM; and `Cc1cc(C(F)(F)F)cc(N2C(=O)C[C@@H]3CN(CCN4C[C@@H](C)N[C@@H](C)C4)c4c(C)cccc4N(C)C(=O)[C@H]32)n1` (relative stereo) [Example 45, (3aR,11aS)-5-(2-(rel-(3R,5S)-3,5-Dimethylpiperazin-1-yl)ethyl)-6,10-dimethyl-1-(6-methyl-4-(trifluoromethyl)pyridin-2-yl)-1,3a,4,5,10,11a-hexahydro-2H-benzo[b]pyrrolo[2,3-f][1,4]diazocine-2,11(3H)-dione dihydrochloride], with 0.651 nM. `Cc1cc(C(F)(F)F)cc(N2C(=O)C[C@@H]3CN(Cc4cc5n(n4)CCN(C)C5)c4c(C)cccc4N(C)C(=O)[C@H]32)n1` [Example 113, (3aR,11aS)-6,10-Dimethyl-5-((5-methyl-4,5,6,7-tetrahydropyrazolo[1,5-a]pyrazin-2-yl)methyl)-1-(6-methyl-4-(trifluoromethyl)pyridin-2-yl)-1,3a,4,5,10,11a-hexahydro-2H-benzo[b]pyrrolo[2,3-f][1,4]diazocine-2,11(3H)-dione]: the affinity corresponds to a Ki of 0.237 nM. Then `Cc1cc(C(F)(F)F)cc(N2C(=O)C[C@@H]3CN(C[C@@H](O)CN(C)C)c4c(Cl)cccc4N(C)C(=O)[C@H]32)n1` (racemic) [Example 132a, (3aR,11aS)-6-chloro-5-((S/R)-3-(dimethylamino)-2-hydroxypropyl)-10-methyl-1-(6-methyl-4-(trifluoromethyl)pyridin-2-yl)-1,3a,4,5,10,11a-hexahydro-2H-benzo[b]pyrrolo[2,3-f][1,4]diazocine-2,11(3H)-dione], with 6.27 nM. `Cc1cc(C(F)(F)F)cc(N2C(=O)C[C@@H]3CN(C[C@H]4COCCN4)c4c(Cl)cccc4N(C)C(=O)[C@H]32)n1` (racemic) [Example 108a, (3aR,11aS)-6-Chloro-10-methyl-1-(6-methyl-4-(trifluoromethyl)pyridin-2-yl)-5-(((S/R)-morpholin-3-yl)methyl)-1,3a,4,5,10,11a-hexahydro-2H-benzo[b]pyrrolo[2,3-f][1,4]diazocine-2,11(3H)-dione] came in with a Ki of 2.17 nM. Regarding `Cc1cc(C(F)(F)F)cc(N2C(=O)C[C@@H]3CN(CCN4CCN(C)C[C@@H]4C)c4c(Cl)cccc4N(C)C(=O)[C@H]32)n1` [Example 10, (3aR,11aS)-6-Chloro-5-(2-((S)-2,4-dimethylpiperazin-1-yl)ethyl)-10-methyl-1-(6-methyl-4-(trifluoromethyl)pyridin-2-yl)-1,3a,4,5,10,11a-hexahydro-2H-benzo[b]pyrrolo[2,3-f][1,4]diazocine-2,11(3H)-dione Hydrochloride], the Ki worked out at 2.18 nM. `Cc1cc(C(F)(F)F)cc(N2C(=O)C[C@@H]3CN(C[C@H]4COCCN4)c4c(F)cccc4N(C)C(=O)[C@H]32)n1` (racemic) [Example 106b, (3aR,11aS)-6-Fluoro-10-methyl-1-(6-methyl-4-(trifluoromethyl)pyridin-2-yl)-5-(((S/R)-morpholin-3-yl)methyl)-1,3a,4,5,10,11a-hexahydro-2H-benzo[b]pyrrolo[2,3-f][1,4]diazocine-2,11(3H)-dione] came in with a Ki of 28.2 nM. In the case of `Cc1cc(C(F)(F)F)cc(N2C(=O)C[C@@H]3CN(CCN4CCOC[C@@H]4C)c4c(Cl)cccc4N(C)C(=O)[C@H]32)n1` [Example 25, (3aR,11aS)-6-Chloro-10-methyl-1-(6-methyl-4-(trifluoromethyl)pyridin-2-yl)-5-(2-((S)-3-methylmorpholino)ethyl)-1,3a,4,5,10,11a-hexahydro-2H-benzo[b]pyrrolo[2,3-f][1,4]diazocine-2,11(3H)-dione] it was 0.711 nM. `Cc1cc(C(F)(F)F)cc(N2C(=O)C[C@@H]3CN(Cc4ccc(C5CCCN5C)cc4)c4c(F)cccc4N(C)C(=O)[C@H]32)n1` (single isomer, unassigned) [Example 125a, hydrochloride] came in with a Ki of 7.92 nM.
